Results: article PMC10449633 (Nature Chemical Biology, 2023)
Like-named read-outs stand apart in the source and are kept apart here. Numbered stars: 1 amine (or outer) side, 2 acyl side, 3 side chain; on linkers, the order of the positions; unused ones are H or OH. Square brackets hold non-standard residues; d marks the D form. Peptide text beside a SMILES is read from it. ξ: configuration not given here. X1 = CN(C(Cc1cn(Cc2ccc(Br)cc2)c2ccccc12)C(=O)[*:2])[*:1]; ξAla(CF3) = NC(CC(F)(F)F)C(=O)O; X2 = N#CCCC(O[*:1])C(=O)[*:2]; NMeL = CN[CH](CC(C)C)C(=O)O; NMeA = CN[CH](C)C(=O)O

Target: T1, Sec61 (Homo sapiens, UniProt P61619)
T1 construct: endogenous in cells
T1 sequence (P61619 whole entry): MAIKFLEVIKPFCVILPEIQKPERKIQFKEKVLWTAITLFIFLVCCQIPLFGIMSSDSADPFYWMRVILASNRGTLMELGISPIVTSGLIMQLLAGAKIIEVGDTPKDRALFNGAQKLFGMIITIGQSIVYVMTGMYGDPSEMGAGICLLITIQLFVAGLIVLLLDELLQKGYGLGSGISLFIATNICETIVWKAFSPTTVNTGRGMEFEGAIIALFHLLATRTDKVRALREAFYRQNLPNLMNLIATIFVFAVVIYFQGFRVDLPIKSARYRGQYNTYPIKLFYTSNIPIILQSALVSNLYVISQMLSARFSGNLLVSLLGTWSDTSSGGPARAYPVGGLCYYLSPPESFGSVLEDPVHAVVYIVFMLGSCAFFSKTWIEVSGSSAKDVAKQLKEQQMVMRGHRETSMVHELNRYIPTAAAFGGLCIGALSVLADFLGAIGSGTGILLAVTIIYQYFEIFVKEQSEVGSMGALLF
T1 sequence (P60059 whole entry, further chain): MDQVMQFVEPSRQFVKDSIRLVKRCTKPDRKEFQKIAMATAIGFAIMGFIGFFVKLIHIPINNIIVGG
T1 sequence (P60468 whole entry, further chain): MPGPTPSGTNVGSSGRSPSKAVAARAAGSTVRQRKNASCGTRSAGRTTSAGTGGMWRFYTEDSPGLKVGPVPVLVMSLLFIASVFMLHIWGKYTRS
Assay: signal peptide-GLuc (SP-GLuc) reporter panel, 89 constructs
Type: cell-based
Source text: The heat map depicts IC50 values calculated from each SP-GLuc dose–response curve. d, Arthritis was induced in BALB/c mice with antibodies specific for type II collagen (mAb) on day 0 and endotoxin on day 3. On day 4, when the disease was present in all animals, mice were randomized and treated for 2 weeks with thrice weekly (QODx3) or weekly (QW) intravenous administration of vehicle or KZR-8445 or intraperitoneal administration of dexamethasone. Clinical scores (0–4 per paw; n = 10 per group) and body weights were followed until day 14. Data are presented as mean values ± s.d. mAb, monoclonal antibody. Source data
To investigate the effects of KZR-8445 on secretory and membrane protein biogenesis and to establish Sec61α as the relevant target, we quantified the secretion of a doxycycline-inducible Gaussia luciferase (GLuc) reporter fused to the C-terminus of two full-length pro-inflammatory cytokines, interleukin-2 (IL-2) (which contains a cleavable signal peptide) and tumor necrosis factor-alpha (TNFα) (which contains an N-terminal transmembrane anchor). […] KZR-8445 is structurally related to CT8, which discriminates among Sec61 clients based largely on their N-terminal signal peptide. […] We also directly compared KZR-8445 to mycolactone A/B, a structurally distinct and relatively client-nonselective Sec61 inhibitor[8],[25], for their ability to discriminate between vascular cell adhesion molecule (VCAM) and preprolactin (pPL) signal peptides.

CC(C)CC1NC(=O)C(Cc2cn(Cc3ccc(Br)cc3)c3ccccc23)N(C)C(=O)C(CC(F)(F)F)NC(=O)C(CC(C)C)N(C)C(=O)C(CC(F)(F)F)NC(=O)C(CCC#N)OC(=O)C(C)N(C)C1=O (centres unmarked) [KZR-8445] (cyclo([X1]L[NMeA][X2][ξAla(CF3)][NMeL][ξAla(CF3)]); configuration not given here)
IC50 (89 signal peptide-GLuc reporters, 24 h, read-out: highest IC50 in the panel): > 25000 nM
IC50 (89 signal peptide-GLuc reporters, 24 h, read-out: lowest IC50 in the panel): 5 nM
IC50 (89 signal peptide-GLuc reporters, 24 h, read-out: median IC50 of the panel): 366 nM
IC50 (ADPGK SP-GLuc, read-out: log10(IC50 8445) (converted)): 540 nM
IC50 (ANGPTL3 SP-GLuc, read-out: log10(IC50 8445) (converted)): 49.4 nM
IC50 (APOC1 SP-GLuc, read-out: log10(IC50 8445) (converted)): 135 nM
IC50 (APP SP-GLuc, read-out: log10(IC50 8445) (converted)): 449 nM
IC50 (AXL SP-GLuc, read-out: log10(IC50 8445) (converted)): 13.8 nM
IC50 (BCAN SP-GLuc, read-out: log10(IC50 8445) (converted)): 142 nM
IC50 (C1S SP-GLuc, read-out: log10(IC50 8445) (converted)): 383 nM
IC50 (CALCA SP-GLuc, read-out: log10(IC50 8445) (converted)): 721 nM
IC50 (CALCB SP-GLuc, read-out: log10(IC50 8445) (converted)): 972 nM
IC50 (CD40 SP-GLuc, read-out: log10(IC50 8445) (converted)): 11300 nM
IC50 (CD47 SP-GLuc, read-out: log10(IC50 8445) (converted)): 373 nM
IC50 (CD96 SP-GLuc, read-out: log10(IC50 8445) (converted)): 29.2 nM
IC50 (CD274 SP-GLuc, read-out: log10(IC50 8445) (converted)): 93.3 nM
IC50 (CDH1 SP-GLuc, read-out: log10(IC50 8445) (converted)): 811 nM
IC50 (CDH2 SP-GLuc, read-out: log10(IC50 8445) (converted)): 15.5 nM
IC50 (CDH5 SP-GLuc, read-out: log10(IC50 8445) (converted)): 76 nM
IC50 (CNPY2 SP-GLuc, read-out: log10(IC50 8445) (converted)): 394 nM
IC50 (CPD SP-GLuc, read-out: log10(IC50 8445) (converted)): 694 nM
IC50 (CR1L SP-GLuc, read-out: log10(IC50 8445) (converted)): 61.3 nM
IC50 (CSF2RB SP-GLuc, read-out: log10(IC50 8445) (converted)): 652 nM
IC50 (CTLA4 SP-GLuc, read-out: log10(IC50 8445) (converted)): 343 nM
IC50 (DDRGK1 SP-GLuc, read-out: log10(IC50 8445) (converted)): 1850 nM
IC50 (DMKN SP-GLuc, read-out: log10(IC50 8445) (converted)): 2630 nM
IC50 (DNAJB11 SP-GLuc, read-out: log10(IC50 8445) (converted)): 4360 nM
IC50 (ERBB2 SP-GLuc, read-out: log10(IC50 8445) (converted)): 536 nM
IC50 (F3 SP-GLuc, read-out: log10(IC50 8445) (converted)): 162 nM
IC50 (FGF23 SP-GLuc, read-out: log10(IC50 8445) (converted)): 28.2 nM
IC50 (FLT3 SP-GLuc, read-out: log10(IC50 8445) (converted)): 360 nM
IC50 (FNDC10 SP-GLuc, read-out: log10(IC50 8445) (converted)): 726 nM
IC50 (FURIN SP-GLuc, read-out: log10(IC50 8445) (converted)): 4740 nM
IC50 (GAS6 SP-GLuc, read-out: log10(IC50 8445) (converted)): 118 nM
IC50 (HJV SP-GLuc, read-out: log10(IC50 8445) (converted)): 427 nM
IC50 (HLA-G SP-GLuc, read-out: log10(IC50 8445) (converted)): 39.2 nM
IC50 (HSPA13 SP-GLuc, read-out: log10(IC50 8445) (converted)): 1110 nM
IC50 (IGF1R SP-GLuc, read-out: log10(IC50 8445) (converted)): 814 nM
IC50 (IL1RAP SP-GLuc, read-out: log10(IC50 8445) (converted)): 101 nM
IC50 (IL4R SP-GLuc, read-out: log10(IC50 8445) (converted)): 32 nM
IC50 (IL4 SP-GLuc, read-out: log10(IC50 8445) (converted)): 359 nM
IC50 (IL5RA SP-GLuc, read-out: log10(IC50 8445) (converted)): 1310 nM
IC50 (IL5 SP-GLuc, read-out: log10(IC50 8445) (converted)): 1300 nM
IC50 (IL6R SP-GLuc, read-out: log10(IC50 8445) (converted)): 92.3 nM
IC50 (IL6 SP-GLuc, read-out: log10(IC50 8445) (converted)): 155 nM
IC50 (IL6ST SP-GLuc, read-out: log10(IC50 8445) (converted)): 56.5 nM
IC50 (IL7 SP-GLuc, read-out: log10(IC50 8445) (converted)): 5.23 nM
IC50 (IL10 SP-GLuc, read-out: log10(IC50 8445) (converted)): 434 nM
IC50 (IL11 SP-GLuc, read-out: log10(IC50 8445) (converted)): 183 nM
IC50 (IL12B SP-GLuc, read-out: log10(IC50 8445) (converted)): 109 nM
IC50 (IL12RB1 SP-GLuc, read-out: log10(IC50 8445) (converted)): 64.4 nM
IC50 (IL13 SP-GLuc, read-out: log10(IC50 8445) (converted)): 59.1 nM
IC50 (IL15RA SP-GLuc, read-out: log10(IC50 8445) (converted)): 294 nM
IC50 (IL15 SP-GLuc, read-out: log10(IC50 8445) (converted)): 116 nM
IC50 (IL17A SP-GLuc, read-out: log10(IC50 8445) (converted)): 318 nM
IC50 (IL17F SP-GLuc, read-out: log10(IC50 8445) (converted)): 228 nM
IC50 (IL17RA SP-GLuc, read-out: log10(IC50 8445) (converted)): 408 nM
IC50 (IL23A SP-GLuc, read-out: log10(IC50 8445) (converted)): 425 nM
IC50 (IL23R SP-GLuc, read-out: log10(IC50 8445) (converted)): 366 nM
